≈ marks a conversion by molar mass, not a printed value.
Columns and labels:
[1] = tested on: M. tuberculosis MDR strain M70; assay: microbe, parasite or virus in culture; assay type: cell-based, Mycobacterium tuberculosis; settings: for MIC: Mycobacterium tuberculosis, read-out: MIC, µg/mL in M.tuberculosis strain M70; for MIC, µg/mL in M.tuberculosis strain M70: MABA assay
[2] = tested on: M. tuberculosis MDR strain M28; assay: microbe, parasite or virus in culture; assay type: cell-based, Mycobacterium tuberculosis; settings: for MIC: Mycobacterium tuberculosis, read-out: MIC, µg/mL in M.tuberculosis strain M28; for MIC, µg/mL in M.tuberculosis strain M28: MABA assay
[3] = tested on: M. tuberculosis MDR strain M94; assay: microbe, parasite or virus in culture; assay type: cell-based, Mycobacterium tuberculosis; settings: for MIC: Mycobacterium tuberculosis, read-out: MIC, µg/mL in M.tuberculosis strain M94; for MIC, µg/mL in M.tuberculosis strain M94: MABA assay
[4] = tested on: M. tuberculosis MDR strain M14; assay: microbe, parasite or virus in culture; assay type: cell-based, Mycobacterium tuberculosis; settings: for MIC: Mycobacterium tuberculosis, read-out: MIC, µg/mL in M.tuberculosis strain M14; for MIC, µg/mL in M.tuberculosis strain M14: MABA assay
[5] = tested on: M. tuberculosis MDR strain TN5904; assay: microbe, parasite or virus in culture; assay type: cell-based, Mycobacterium tuberculosis; settings: for MIC: Mycobacterium tuberculosis, read-out: MIC, µg/mL in M.tuberculosis strain TN5904; for MIC, µg/mL in M.tuberculosis strain TN5904: MABA assay
M. tuberculosis H37Rv = assay: microbe, parasite or virus in culture; assay type: cell-based, Mycobacterium tuberculosis; settings: for MIC: Mycobacterium tuberculosis, H37RV, read-out: MIC, µg/mL in M.tuberculosis strain H37Rv; for MIC, µg/mL in M.tuberculosis strain H37Rv: MABA assay, drug-susceptible strain H37Rv
[6] = tested on: M. tuberculosis MDR strain M70; set-up: key: R- resistant; S -susceptible; settings: cited from earlier work
[7] = tested on: M. tuberculosis MDR strain M28; set-up: key: R- resistant; S -susceptible; settings: cited from earlier work
[8] = tested on: M. tuberculosis MDR strain M94; set-up: key: R- resistant; S -susceptible; settings: cited from earlier work
[9] = tested on: M. tuberculosis MDR strain M14; set-up: key: R- resistant; S -susceptible; settings: cited from earlier work
[10] = tested on: M. tuberculosis MDR strain TN5904; set-up: key: R- resistant; S -susceptible; settings: cited from earlier work

Compound	MIC [1] [µg/mL]	MIC [2] [µg/mL]	MIC [3] [µg/mL]	MIC [4] [µg/mL]	MIC [5] [µg/mL]	MIC (M. tuberculosis H37Rv) [µg/mL]	Drug resistance feature of the strain [6]	Drug resistance feature of the strain [7]	Drug resistance feature of the strain [8]	Drug resistance feature of the strain [9]	Drug resistance feature of the strain [10]	MIC, µg/mL in M.tuberculosis strain M70 [1] [µg/mL]	MIC, µg/mL in M.tuberculosis strain M28 [2] [µg/mL]	MIC, µg/mL in M.tuberculosis strain M14 [4] [µg/mL]	MIC, µg/mL in M.tuberculosis strain TN5904 [5] [µg/mL]	MIC, µg/mL in M.tuberculosis strain H37Rv (M. tuberculosis H37Rv) [µg/mL]	MIC, µg/mL in M.tuberculosis strain M94 [3] [µg/mL]
Cl.Cl.NCCn1nnc(-c2ccc(-c3ccc(N4C[C@H](CN)OC4=O)cc3F)cn2)n1 [AKG-29]	≤ 0.03	0.125	0.125	0.06	0.06	0.25											
CN(C)CCn1nnc(-c2ccc(-c3ccc(N4C[C@H](CO)OC4=O)cc3F)cn2)n1 [AKG-16]	0.125 (≈ 0.292 µM)	0.25 (≈ 0.585 µM)	0.06 (≈ 0.14 µM)	0.06 (≈ 0.14 µM)	0.06 (≈ 0.14 µM)												
CC(=O)NC[C@H]1CN(c2ccc(N3CCOCC3)c(F)c2)C(=O)O1 [Linezolid]	0.5 (≈ 1.48 µM)	0.5 (≈ 1.48 µM)	0.5 (≈ 1.48 µM)	0.5 (≈ 1.48 µM)	1 (≈ 2.96 µM)	2 (≈ 5.93 µM)											
CC[C@@H](CO)NCCN[C@@H](CC)CO [EMB]							S	R	S	S	S						
Cl.Cn1nnc(-c2ccc(-c3ccc(N4C[C@H](CN)OC4=O)cc3F)cn2)n1 [AKG-3]	≤ 0.015	0.06	0.06	0.03	0.06	0.125											
CC(=O)NC[C@H]1CN(c2ccc(-c3ccc(-c4nnn(CCN(C)C)n4)nc3)c(F)c2)C(=O)O1 [AKG-38]	≤ 0.015	0.03 (≈ 0.064 µM)	0.03 (≈ 0.064 µM)	0.03 (≈ 0.064 µM)	0.03 (≈ 0.064 µM)	0.03 (≈ 0.064 µM)											
CN(C)CCn1nnc(-c2ccc(-c3ccc(N4C[C@H](CN)OC4=O)cc3F)cn2)n1.Cl [AKG-28]	≤ 0.004	0.015	0.015	0.015	0.015	0.03											
CCN(CC)CCn1nnc(-c2ccc(-c3ccc(N4C[C@H](CNC(C)=O)OC4=O)cc3F)cn2)n1 [AKG-39]	0.125 (≈ 0.252 µM)	0.5 (≈ 1.01 µM)	1 (≈ 2.01 µM)	0.5 (≈ 1.01 µM)	0.25 (≈ 0.503 µM)												
NC(=O)c1cnccn1 [PZA]							R	R	S	R	R						
CO[C@H]1/C=C/O[C@@]2(C)Oc3c(C)c(O)c4c(O)c(c(/C=N/N5CCN(C)CC5)c(O)c4c3C2=O)NC(=O)/C(C)=C\C=C\[C@H](C)[C@H](O)[C@@H](C)[C@@H](O)[C@@H](C)[C@H](OC(C)=O)[C@@H]1C [RIF]							R	R	S	S	R	>8	>8	0.06 (≈ 0.0729 µM)	>8	0.06 (≈ 0.0729 µM)	
CN[C@@H]1[C@H](O[C@H]2[C@H](O[C@H]3[C@H](O)[C@@H](O)[C@H](N=C(N)N)[C@@H](O)[C@@H]3N=C(N)N)O[C@@H](C)[C@]2(O)C=O)O[C@@H](CO)[C@H](O)[C@H]1O [STR]							R	S	R	R	R	2 (≈ 3.44 µM)	0.125 (≈ 0.215 µM)	>8	1 (≈ 1.72 µM)	0.5 (≈ 0.86 µM)	>8
NNC(=O)c1ccncc1 [INH]							R	R	R	R	R	>2	>2	>2	2 (≈ 14.6 µM)	0.06 (≈ 0.438 µM)	>2
COc1c(N2C[C@@H]3CCCN[C@@H]3C2)c(F)cc2c(=O)c(C(=O)O)cn(C3CC3)c12 [MOX]	1 (≈ 2.49 µM)	2 (≈ 4.98 µM)	0.125 (≈ 0.311 µM)	0.125 (≈ 0.311 µM)	0.125 (≈ 0.311 µM)	0.125 (≈ 0.311 µM)											
